# Patent US12018021B2 (UCB Biopharma SRL, priority 2018, dated 2024)
# Where a name gives a salt, the structure may show the parent alone.
# Biological target: IgE-Tb / FcεRIα-Y131A-AF488 (Homo sapiens, UniProt P01854)
# Test: IgE-Tb / FcεRIα-Y131A-AF488 FRET assay (protocol for examples 1 to 233)
# Assay type: binding
# Settings: examples 1 to 233: 5 nM IgE-Tb, 25 nM FcεRIα-Y131A-AF488, incubated 2 hours at room temperature; read-out: Y131A FRET IC50 range
# Method: For examples 1 to 233, the assay was conducted according to the following: Each assay reaction was conducted in a volume of 25 μl in a 384-well half-volume plate. 10 point compound serial dilutions (3-fold) were generated in DMSO at a concentration of ×50 that of the final assay concentration (FAC). Compound solutions were then prepared by IgE-Tb diluting 10-fold in assay buffer. For the assay, 5 μl of diluted compound was added to 10 μl of, followed by addition of 10 μl FcεRIα-Y131A-AF488. FRET reagents FACs were 5 nM IgE-Tb, 25 nM FcεRIα-Y131A-AF488. Usually the top FAC of compound in the assay was 10 μM. The final DMSO concentration was 2%. The minimum signal (MIN) was measured by adding 5l unlabelled FcεRIα at 1 μM (FAC=200 nM) to the FRET reagents. The maximum FRET signal (MAX) was measured in wells containing FRET reagents but no compound. The assay was incubated for 2 hours at room temperature, protected from light and evaporation, and with gentle agitation.
# Measurement of FRET for each well was carried out by exciting at 330 nm and measuring emission at 495/520 nm using an Envision plate reader (Perkin Elmer). FRET ratio was calculated as follows: Emission at 520/Emission at 495×1000.
# The FRET ratio was used for the data analysis.
# Z′ was calculated as follows (σ=standard deviation and μ=mean): 1−((3×σMAX)+(3×σMIN))/(μMAX−μMIN)
# Z′ above 0.5 was considered a good assay.
# Background signal (MIN) was subtracted from all wells. Using the background subtracted values, the percent inhibition by compound in each test-well was calculated as follows: 100−Test-well FRET ratio/MAX FRET ratio×100.
# Percent inhibition was plotted against compound concentration. IC50 values for each compound were determined using four parameter logistic fit model using the XLFIT5 software package.
# Sequence of IgE-Tb / FcεRIα-Y131A-AF488 (P01854 1-427 limits assumed, stated change not applied): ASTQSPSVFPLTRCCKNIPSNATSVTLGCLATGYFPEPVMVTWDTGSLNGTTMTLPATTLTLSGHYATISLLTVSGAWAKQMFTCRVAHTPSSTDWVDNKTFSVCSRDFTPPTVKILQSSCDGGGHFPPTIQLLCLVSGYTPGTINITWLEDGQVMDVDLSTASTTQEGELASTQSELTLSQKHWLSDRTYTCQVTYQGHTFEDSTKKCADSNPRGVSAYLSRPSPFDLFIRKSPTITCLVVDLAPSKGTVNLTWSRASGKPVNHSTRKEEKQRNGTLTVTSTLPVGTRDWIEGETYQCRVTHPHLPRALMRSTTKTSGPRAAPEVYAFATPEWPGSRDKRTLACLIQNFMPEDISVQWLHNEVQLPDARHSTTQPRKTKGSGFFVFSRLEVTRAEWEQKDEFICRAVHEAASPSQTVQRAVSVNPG
row,Structure (SMILES),IC50 [µM]
1,"Cc1cncc(Nc2nncn2C2CCc3sc(NC(=O)C4CC4)c(C(=O)NCC4CC4)c3C2)c1 (stereo in doubt) [Example 114, (5S)-2-(cyclopropanecarbonylamino)-N-(cyclopropylmethyl)-5-[3-[(5-methyl-3-pyridyl)amino]-1,2,4-triazol-4-yl]-4,5,6,7-tetrahydrobenzothiophene-3-carboxamide]",< 1
2,"O=C(NCC1CC1)c1c(NC(=O)C2CC2)sc2c1CC(n1cnnc1NCCN1CCOCC1)CC2 (stereo in doubt) [Example 118, (5S)-2-(Cyclopropanecarbonylamino)-N-(cyclopropylmethyl)-5-[3-(2-morpholinoethylamino)-1,2,4-triazol-4-yl]-4,5,6,7-tetrahydrobenzothiophene-3-carboxamide]",< 1
3,"CC(C)(C)OC(=O)Nc1cnnn1[C@H]1CCc2sc(NC(=O)C3CC3)c(C(=O)NCC3CC3)c2C1 (stereo in doubt) [Example 140, tert-Butyl N-[3-[2-(cyclopropanecarbonylamino)-3-(cyclopropylmethylcarbamoyl)-4,5,6,7-tetrahydrobenzothiophen-5-yl]triazol-4-yl]carbamate]",< 1
4,"Cc1cnc(Nc2nncn2C2CCc3sc(NC(=O)C4CC4)c(C(=O)NCC4CC4)c3C2)c(C)n1 (stereo in doubt) [Example 178, (5S)-2-(Cyclopropanecarbonylamino)-N-(cyclopropylmethyl)-5-[3-[(3,5-dimethylpyrazin-2-yl)amino]-1,2,4-triazol-4-yl]-4,5,6,7-tetrahydrobenzothiophene-3-carboxamide]",< 1
5,"CNC(=O)c1c(NC(=O)C2CC2)sc2c1CCSC2 [Example 1, 2-(Cyclopropanecarbonylamino)-N-methyl-5,7-dihydro-4H-thieno[2,3-c]thiopyran-3-carboxamide]",1 to 10
6,"CNC(=O)c1c(NC(=O)C2CC2)sc2c1CCCO2 [Example 2, 6-(Cyclopropanecarbonylamino)-N-methyl-3,4-dihydro-2H-thieno[2,3-b]pyran-5-carboxamide]",10 to 50
7,"O=C(NCC1CC1)c1c(NC(=O)C2CC2)sc2c1CNCC2 [Example 3, 2-(Cyclopropanecarbonylamino)-N-(cyclopropylmethyl)-4,5,6,7-tetrahydrothieno[3,2-c]pyridine-3-carboxamide; hydrochloride]",10 to 50
8,"CS(=O)(=O)N1CCc2sc(NC(=O)C3CC3)c(C(=O)NCC3CC3)c2C1 [Example 4, 2-(Cyclopropanecarbonylamino)-N-(cyclopropylmethyl)-5-methylsulfonyl-6,7-dihydro-4H-thieno[3,2-c]pyridine-3-carboxamide]",10 to 50
9,"CC(=O)N1CCc2sc(NC(=O)C3CC3)c(C(=O)NCC3CC3)c2C1 [Example 5, 5-Acetyl-2-(cyclopropanecarbonylamino)-N-(cyclopropylmethyl)-6,7-dihydro-4H-thieno[3,2-c]pyridine-3-carboxamide]",10 to 50
10,"CS(=O)(=O)N1CCCc2c1sc(NC(=O)C1CC1)c2C(=O)NCC1CC1 [Example 6, 2-(Cyclopropanecarbonylamino)-N-(cyclopropylmethyl)-7-methylsulfonyl-5,6-dihydro-4H-thieno[2,3-b]pyridine-3-carboxamide]",1 to 10
11,"CC(=O)N1CCCc2c1sc(NC(=O)C1CC1)c2C(=O)NCC1CC1 [Example 7, 7-Acetyl-2-(cyclopropanecarbonylamino)-N-(cyclopropylmethyl)-5,6-dihydro-4H-thieno[2,3-b]pyridine-3-carboxamide]",10 to 50
12,"COCC(=O)N1CCc2sc(NC(=O)C3CC3)c(C(=O)NCC3CC3)c2C1 [Example 8, 2-(Cyclopropanecarbonylamino)-N-(cyclopropylmethyl)-5-(2-methoxyacetyl)-6,7-dihydro-4H-thieno[3,2-c]pyridine-3-carboxamide]",10 to 50
13,"O=C(NCC1CC1)c1c(NC(=O)C2CC2)sc2c1CN(C(=O)Cc1ccccc1)CC2 [Example 9, 2-(Cyclopropanecarbonylamino)-N-(cyclopropylmethyl)-5-(2-phenylacetyl)-6,7-dihydro-4H-thieno[3,2-c]pyridine-3-carboxamide]",10 to 50
14,"CC(C)(C)OC(=O)NCCN1CCc2sc(NC(=O)C3CC3)c(C(=O)NCC3CC3)c2C1 [Example 10, Tert-butyl N-[2-[2-(cyclopropanecarbonylamino)-3-(cyclopropylmethylcarbamoyl)-6,7-dihydro-4H-thieno[3,2-c]pyridin-5-yl]ethyl]carbamate]",10 to 50
15,"O=C(NCC1CC1)c1c(NC(=O)C2CC2)sc2c1CN(CCc1ccccc1)CC2 [Example 11, 2-(Cyclopropanecarbonylamino)-N-(cyclopropylmethyl)-5-(2-phenylethyl)-6,7-dihydro-4H-thieno[3,2-c]pyridine-3-carboxamide]",10 to 50
16,"COC(=O)CN1CCc2sc(NC(=O)C3CC3)c(C(=O)NCC3CC3)c2C1 [Example 12, Methyl 2-[2-(cyclopropanecarbonylamino)-3-(cyclopropylmethylcarbamoyl)-6,7-dihydro-4H-thieno[3,2-c]pyridin-5-yl]acetate]",10 to 50
17,"O=C(Nc1sc2c(c1S(=O)(=O)NCC1CC1)CCCC2)C1CC1 [Example 15, N-[3-(Cyclopropylmethylsulfamoyl)-4,5,6,7-tetrahydrobenzothiophen-2-yl]cyclopropanecarboxamide]",< 1
18,"CCCNS(=O)(=O)c1c(NC(=O)C2CC2)sc2c1CCCC2 [Example 16, N-[3-(Propylsulfamoyl)-4,5,6,7-tetrahydrobenzothiophen-2-yl]cyclopropanecarboxamide]",< 1
19,"CC(C)CNS(=O)(=O)c1c(NC(=O)C2CC2)sc2c1CCCC2 [Example 17, N-[3-(Isobutylsulfamoyl)-4,5,6,7-tetrahydrobenzothiophen-2-yl]cyclopropanecarboxamide]",< 1
20,"CC(C)(O)CNS(=O)(=O)c1c(NC(=O)C2CC2)sc2c1CCCC2 [Example 18, N-[3-[(2-Hydroxy-2-methyl-propyl)sulfamoyl]-4,5,6,7-tetrahydrobenzothiophen-2-yl]cyclopropanecarboxamide]",1 to 10
21,"CC(O)CNS(=O)(=O)c1c(NC(=O)C2CC2)sc2c1CCCC2 (stereo not drawn) [Example 19, N-[3-(2-Hydroxypropylsulfamoyl)-4,5,6,7-tetrahydrobenzothiophen-2-yl]cyclopropanecarboxamide]",< 1
22,"O=C(Nc1sc2c(c1S(=O)(=O)N1CCCC1)CCCC2)C1CC1 [Example 20, N-(3-Pyrrolidin-1-ylsulfonyl-4,5,6,7-tetrahydrobenzothiophen-2-yl)cyclopropanecarboxamide]",1 to 10
23,"O=C(Nc1sc2c(c1S(=O)(=O)NC1CC(F)C1)CCCC2)C1CC1 (stereo not drawn) [Example 21, N-[3-[(3-Fluorocyclobutyl)sulfamoyl]-4,5,6,7-tetrahydrobenzothiophen-2-yl]cyclopropanecarboxamide]",< 1
24,"CCCCS(=O)(=O)c1c(NC(=O)C2CC2)sc2c1CCCC2 [Example 22, N-(3-Butylsulfonyl-4,5,6,7-tetrahydrobenzothiophen-2-yl)cyclopropanecarboxamide]",1 to 10
25,"CC(C)CNS(=O)(=O)c1c(NC(=O)C2CC2)sc2c1CC(Nc1ncccn1)CC2 (stereo not drawn) [Example 23, N-[3-(Isobutylsulfamoyl)-5-(pyrimidin-2-ylamino)-4,5,6,7-tetrahydrobenzothiophen-2-yl]cyclopropanecarboxamide]",< 1
26,"CC(C)CNS(=O)(=O)c1c(NC(=O)C2CC2)sc2c1CC(NS(C)(=O)=O)CC2 (stereo not drawn) [Example 24, N-[3-(Isobutylsulfamoyl)-5-(methanesulfonamido)-4,5,6,7-tetrahydrobenzothiophen-2-yl]cyclopropanecarboxamide]",< 1
27,"CCCNS(=O)(=O)c1c(NC(=O)C2CC2)sc2c1CC(NC(=S)Nc1ccc(OC)cc1)CC2 (stereo not drawn) [Example 25, N-[5-[(4-Methoxyphenyl)carbamothioylamino]-3-(propylsulfamoyl)-4,5,6,7-tetrahydrobenzothiophen-2-yl]cyclopropanecarboxamide]",< 1
28,"CCCNS(=O)(=O)c1c(NC(=O)C2CC2)sc2c1CC(NC(=O)Nc1ccc(OC)cc1)CC2 (stereo not drawn) [Example 26, N-[5-[(4-Methoxyphenyl)carbamoylamino]-3-(propylsulfamoyl)-4,5,6,7-tetrahydrobenzothiophen-2-yl]cyclopropanecarboxamide]",< 1
29,"CCNC(=O)C1CCCc2c1sc(NC(=O)C1CC1)c2S(=O)(=O)NCC(C)C (stereo not drawn) [Example 27, 2-(Cyclopropanecarbonylamino)-N-ethyl-3-(isobutylsulfamoyl)-4,5,6,7-tetrahydrobenzothiophene-7-carboxamide]",1 to 10
30,"CCNC(=O)C1CCc2sc(NC(=O)C3CC3)c(S(=O)(=O)NCC(C)C)c2C1 (stereo not drawn) [Example 28, 2-(Cyclopropanecarbonylamino)-N-ethyl-3-(isobutylsulfamoyl)-4,5,6,7-tetrahydrobenzothiophene-5-carboxamide]",< 1
